pEC50, pIC50: −log10 of the molar value. Where two headings read alike, the source gives them in different places.
What was measured:
[1] = target: T1, interaction between glucokinase (GK) and glucokinase regulatory protein (GKRP) (Homo sapiens, UniProt Q14397); assay: biochemical; format: binding
T1 sequence (Q14397 1-625): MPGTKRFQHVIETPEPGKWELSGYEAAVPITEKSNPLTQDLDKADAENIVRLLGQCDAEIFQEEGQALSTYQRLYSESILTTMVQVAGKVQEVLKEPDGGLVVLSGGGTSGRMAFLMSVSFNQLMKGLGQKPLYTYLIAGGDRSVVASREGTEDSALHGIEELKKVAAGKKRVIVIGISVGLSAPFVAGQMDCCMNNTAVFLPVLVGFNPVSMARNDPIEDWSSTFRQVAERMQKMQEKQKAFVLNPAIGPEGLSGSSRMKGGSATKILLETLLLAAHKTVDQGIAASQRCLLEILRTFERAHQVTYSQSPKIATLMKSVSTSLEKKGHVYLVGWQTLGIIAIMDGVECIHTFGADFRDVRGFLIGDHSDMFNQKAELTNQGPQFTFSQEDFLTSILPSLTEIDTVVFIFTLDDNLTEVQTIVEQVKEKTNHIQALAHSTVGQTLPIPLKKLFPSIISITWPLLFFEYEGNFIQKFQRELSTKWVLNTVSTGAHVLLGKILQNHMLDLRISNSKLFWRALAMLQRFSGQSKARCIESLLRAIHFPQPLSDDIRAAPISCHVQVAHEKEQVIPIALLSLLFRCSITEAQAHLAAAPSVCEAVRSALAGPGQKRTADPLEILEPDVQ
Outline: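 Avi-tagged human GKRP preincubated with compound for 20 min at room temperature, then 6 nM GK-fluorescein (concentration of added solution) introduced and incubated 2 h in the dark. Buffer: 20 mM Tris pH 7.5, 0.05% BSA, 1 mM DTT, 1 μM sorbitol-6-phosphate. Plate read on a fluorescence reader.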

[2] = target: T2, GKRP (Glucokinase Regulatory Protein) with human His-hepatic GK (Homo sapiens, UniProt Q14397); assay: biochemical
T2 sequence (Q14397 1-625): T1 sequence (Q14397 1-625)
Outline: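 Human His-tagged hepatic GK (30 nM in the 5× working stock) in 50 mM Tris pH 7.5, 4 mM MgCl2, 6% DMSO with DTT, BSA and Brij-35. Enzyme was added after a 30 min step and reacted 30 min at room temperature. The reaction was stopped with acetonitrile and 13C-glucose-6-phosphate formed from 13C-glucose was quantified by LC MS/MS.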

[3] = avi-tagged GKRP, GK-fluorescein, AlphaScreen beads, read-out: GK-GKRP IC50 (Binding)
[4] = 13C-glucose-6-phosphate formation, 280 nM GKRP (10×), 30 nM GK (5×), read-out: GK-GKRP EC50 (LC MS/MS-2)

CC(O)(c1ccc(N2CCN(S(=O)(=O)c3cccs3)C[C@@H]2CN2C3COCC2C(O)C3)cc1)C(F)(F)F (single isomer, unassigned; peak #4) [Example 77 Peak #4]
pIC50 [1, 3]: 7.38 | pEC50 [2, 4]: 7.19

CC(O)(c1ccc(N2CCN(S(=O)(=O)c3cccs3)C[C@@H]2CN2C3COCC2C(O)C3)cc1)C(F)(F)F (stereo partly drawn) [Example 77, 8-(((2S)-4-(2-thiophenylsulfonyl)-1-(4-(2,2,2-trifluoro-1-hydroxy-1-methylethyl)phenyl)-2-piperazinyl)methyl)-3-oxa-8-azabicyclo[3.2.1]octan-6-ol (endo)]
pIC50 [1, 3]: 7.55 | pEC50 [2, 4]: 7.51

CC(O)(c1ccc(N2CCN(S(=O)(=O)c3cccs3)C[C@@H]2CN2C3COCC2C(O)C3)cc1)C(F)(F)F (stereo partly drawn) [Example 78, 8-(((2S)-4-(2-thiophenylsulfonyl)-1-(4-(2,2,2-trifluoro-1-hydroxy-1-methylethyl)phenyl)-2-piperazinyl)methyl)-3-oxa-8-azabicyclo[3.2.1]octan-6-ol]
pIC50 [1, 3]: 7.38 | pEC50 [2, 4]: 7.30

O=S(=O)(c1cccs1)N1CCN(c2ncc(C(O)(C(F)(F)F)C(F)(F)F)cn2)[C@@H](CN2C3COCC2C(O)C3)C1 (stereo partly drawn) [Example 79, 8-(((2S)-4-(2-thiophenylsulfonyl)-1-(5-(2,2,2-trifluoro-1-hydroxy-1-(trifluoromethyl)ethyl)-2-pyrimidinyl)-2-piperazinyl)methyl)-3-oxa-8-azabicyclo[3.2.1]octan-6-ol]
pIC50 [1, 3]: 7.41 | pEC50 [2, 4]: 7.24

O=S(=O)(c1nccs1)N1CCN(c2ncc(C(O)(C(F)(F)F)C(F)(F)F)cn2)[C@@H](CN2C3COCC2C(O)C3)C1 (stereo partly drawn) [Example 81, 8-(((2S)-4-(1,3-thiazol-2-ylsulfonyl)-1-(5-(2,2,2-trifluoro-1-hydroxy-1-(trifluoromethyl)ethyl)-2-pyrimidinyl)-2-piperazinyl)methyl)-3-oxa-8-azabicyclo[3.2.1]octan-6-ol]
pIC50 [1, 3]: 6.75 | pEC50 [2, 4]: 6.54

C[C@H]1COCCN1C[C@H]1CN(S(=O)(=O)c2cccs2)CCN1c1ncc(C(O)(C(F)(F)F)C(F)(F)F)cn1 [Example 82, 1,1,1,3,3,3-hexafluoro-2-(2-((2S)-2-(((3S)-3-methyl-4-morpholinyl)methyl)-4-(2-thiophenylsulfonyl)-1-piperazinyl)-5-pyrimidinyl)-2-propanol]
pIC50 [1, 3]: 7.82 | pEC50 [2, 4]: 7.59

Nc1ccc(S(=O)(=O)N2CCN(c3ccc(C(O)(C(F)(F)F)C(F)(F)F)cc3)CC2)s1 [Example 88, 2-(4-(4-((5-amino-2-thiophenyl)sulfonyl)-1-piperazinyl)phenyl)-1,1,1,3,3,3-hexafluoro-2-propanol]
pIC50 [1, 3]: 6.52 | pEC50 [2, 4]: 6.82

C[C@H]1CN(S(=O)(=O)c2ccc(N)s2)CCN1c1ncc(C(O)(C(F)(F)F)C(F)(F)F)cn1 [Example 89, 2-(2-((2S)-4-((5-amino-2-thiophenyl)sulfonyl)-2-methyl-1-piperazinyl)-5-pyrimidinyl)-1,1,1,3,3,3-hexafluoro-2-propanol]
pIC50 [1, 3]: 6.60 | pEC50 [2, 4]: 6.79

C[C@H]1CN(S(=O)(=O)c2ccc(N)nc2)CCN1c1ccc(C(O)(C(F)(F)F)C(F)(F)F)cc1 [Example 92, 2-(4-((2S)-4-((6-amino-3-pyridinyl)sulfonyl)-2-methyl-1-piperazinyl)phenyl)-1,1,1,3,3,3-hexafluoro-2-propanol]
pIC50 [1, 3]: 6.69 | pEC50 [2, 4]: 6.63

C[C@H]1CN(S(=O)(=O)c2ccc(N)nc2)CCN1c1ncc(C(O)(C(F)(F)F)C(F)(F)F)cn1 [Example 93, 2-(2-((2S)-4-((6-amino-3-pyridinyl)sulfonyl)-2-methyl-1-piperazinyl)-5-pyrimidinyl)-1,1,1,3,3,3-hexafluoro-2-propanol]
pIC50 [1, 3]: 6.72 | pEC50 [2, 4]: 6.71

C[C@H]1CN(S(=O)(=O)c2cccs2)CCN1c1ncc(C(O)(C(F)(F)F)C(F)(F)F)cn1 [Example 94, 1,1,1,3,3,3-hexafluoro-2-(2-((2S)-2-methyl-4-(2-thiophenylsulfonyl)-1-piperazinyl)-5-pyrimidinyl)-2-propanol]
pIC50 [1, 3]: 6.44 | pEC50 [2, 4]: 6.33

Nc1ccc(S(=O)(=O)N2CCN(c3ncc(C(O)(C(F)(F)F)C(F)(F)F)cn3)[C@@H](CN3C4COCC3CC(O)C4)C2)s1 (stereo partly drawn) [Example 98 nonan-7-ol (endo), 9-(((2S)-4-((5-amino-2-thiophenyl)sulfonyl)-1-(5-(2,2,2-trifluoro-1-hydroxy-1-(trifluoromethyl)ethyl)-2-pyrimidinyl)-2-piperazinyl)methyl)-3-oxa-9-azabicyclo[3.3.1]nonan-7-ol (endo)]
pIC50 [1, 3]: 8.70 | pEC50 [2, 4]: 7.72

Nc1ccc(S(=O)(=O)N2CCN(c3ncc(C(O)(C(F)(F)F)C(F)(F)F)cn3)[C@@H](CN3C4COCC3CC(=O)C4)C2)s1 [Example 98 nonan-7-one, 9-(((2S)-4-((5-amino-2-thiophenyl)sulfonyl)-1-(5-(2,2,2-trifluoro-1-hydroxy-1-(trifluoromethyl)ethyl)-2-pyrimidinyl)-2-piperazinyl)methyl)-3-oxa-9-azabicyclo[3.3.1]nonan-7-one]
pIC50 ([1]; GK-GKRP IC50 (Binding), avi-tagged GKRP, GK-fluorescein, AlphaScreen beads): 7.80 | pEC50 ([2]; GK-GKRP EC50 (LC MS/MS-2), 13C-glucose-6-phosphate formation, 280 nM GKRP (10×), 30 nM GK (5×)): 7.40

Nc1ccc(S(=O)(=O)N2CCN(c3ncc(C(O)(C(F)(F)F)C(F)(F)F)cn3)[C@@H](CN3C4COCC3CC(O)C4)C2)cn1 (stereo partly drawn) [Example 99 nonan-7-ol (endo), 9-(((2S)-4-((6-amino-3-pyridinyl)sulfonyl)-1-(5-(2,2,2-trifluoro-1-hydroxy-1-(trifluoromethyl)ethyl)-2-pyrimidinyl)-2-piperazinyl)methyl)-3-oxa-9-azabicyclo[3.3.1]nonan-7-ol (endo)]
pIC50 [1, 3]: 8.52 | pEC50 [2, 4]: 7.60

Nc1ccc(S(=O)(=O)N2CCN(c3ncc(C(O)(C(F)(F)F)C(F)(F)F)cn3)[C@@H](CN3C4COCC3CC(=O)C4)C2)cn1 [Example 99 nonan-7-one, 9-(((2S)-4-((6-amino-3-pyridinyl)sulfonyl)-1-(5-(2,2,2-trifluoro-1-hydroxy-1-(trifluoromethyl)ethyl)-2-pyrimidinyl)-2-piperazinyl)methyl)-3-oxa-9-azabicyclo[3.3.1]nonan-7-one]
pIC50 [1, 3]: 7.12 | pEC50 [2, 4]: 7.01

CC(O)(c1ccc(N2CCN(S(=O)(=O)c3cccs3)C[C@@H]2CN2[C@@H]3COC[C@H]2CC(=O)C3)cc1)C(F)(F)F (stereo partly drawn) [Example 106, 9-(((2S)-4-(2-thiophenylsulfonyl)-1-(4-(2,2,2-trifluoro-1-hydroxy-1-methylethyl)phenyl)-2-piperazinyl)methyl)-3-oxa-9-azabicyclo[3.3.1]nonan-7-one]
pIC50 [1, 3]: 7.46 | pEC50 [2, 4]: 7.01

CC(O)(c1ccc(N2CCN(S(=O)(=O)c3cccs3)C[C@@H]2CN2[C@@H]3COC[C@H]2CC(O)C3)cc1)C(F)(F)F (stereo partly drawn) [Example 107, 9-(((2S)-4-(2-thiophenylsulfonyl)-1-(4-(2,2,2-trifluoro-1-hydroxy-1-methylethyl)phenyl)-2-piperazinyl)methyl)-3-oxa-9-azabicyclo[3.3.1]nonan-7-ol (endo)]
pIC50 [1, 3]: 8.30 | pEC50 [2, 4]: 7.80

CC1(O)C[C@H]2COC[C@@H](C1)N2C[C@H]1CN(S(=O)(=O)c2cccs2)CCN1c1ccc(C(C)(O)C(F)(F)F)cc1 (stereo partly drawn) [Example 108, (1R,5S)-7-methyl-9-(((2S)-4-(2-thiophenylsulfonyl)-1-(4-(2,2,2-trifluoro-1-hydroxy-1-methylethyl)phenyl)-2-piperazinyl)methyl)-3-oxa-9-azabicyclo[3.3.1]nonan-7-ol (endo)]
pIC50 [1, 3]: 7.57 | pEC50 [2, 4]: 7.35

COC1C[C@H]2COC[C@@H](C1)N2C[C@H]1CN(S(=O)(=O)c2cccs2)CCN1c1ccc(C(C)(O)C(F)(F)F)cc1 (stereo partly drawn) [Example 109, 1,1,1-trifluoro-2-(4-((2S)-2-(((1R,5S)-7-methoxy-3-oxa-9-azabicyclo[3.3.1]non-9-yl)methyl)-4-(2-thiophenylsulfonyl)-1-piperazinyl)phenyl)-2-propanol (endo)]
pIC50 [1, 3]: 7.14 | pEC50 [2, 4]: 7.09

CC(O)(c1ccc(N2CCN(S(=O)(=O)c3cccs3)C[C@@H]2CN2CC3CCOC3C2)cc1)C(F)(F)F (stereo partly drawn) [Example 122, 1,1,1-trifluoro-2-(4-((2S)-2-(cis-hexahydro-5H-furo[2,3-c]pyrrol-5-ylmethyl)-4-(2-thiophenylsulfonyl)-1-piperazinyl)phenyl)-2-propanol]
pIC50 ([1]; GK-GKRP IC50 (Binding)): 6.26 | pEC50 ([2]; GK-GKRP EC50 (LC MS/MS-2)): 6.50

From patent US8431563B2 (priority 2010, dated 2013)
